The values below come from publication PMC4810081, “Venetoclax (ABT-199) Might Act as a Perpetrator in Pharmacokinetic Drug–Drug Interactions” (Pharmaceutics, 2016).

In one assay the test system is P-gp. Nature of the assay: Western blot of P-gp protein expression in LS180 cells. It counts as in vitro ADME, human. The note with it: four days, at 1 and 10 µM. As to the method: For the induction experiments, LS180 cells were seeded in 75 cm^2 culturing flasks and incubated for three days. Cells were then treated with a culture medium containing venetoclax (0.01–10 µM) in quintuplicate for four consecutive days. Rifampicin (20 µM) served as a positive control for PXR-driven genes and culture medium as a negative control. All incubation solutions were adjusted to 0.02% DMSO. After harvesting, cells were split for RNA and protein extraction.
To exemplarily verify the effects of venetoclax on mRNA expression, protein expressions of P-gp and CYP1A2 were analyzed in triplicate by SDS polyacrylamide gel electrophoresis (SDS-PAGE) and Western blotting. In brief, cell lysates containing 20 µg protein were mixed with 5× sample buffer (containing Tris–HCl, SDS, DTT, bromophenol blue, and glycerol) and subjected to 10% SDS-PAGE. Afterwards, proteins were electrotransferred to nitrocellulose nitrate membranes. Blots were blocked by incubation for 20–40 min with 5% Slim-Fast® (w/v) in phosphate-buffered saline containing 0.1% Tween®20. […] Bands were visualized by enhanced chemiluminescence using the SuperSignal®West Pico Chemiluminescent Substrate Kit and recorded by FluorChem Q SA AlphaView Version 3.2.2, Cell Biosciences (Santa Clara, CA, USA).
For orientation: Immunoblotting shows a protein as a band on a membrane.

The test system of a further assay is Bcl-xL. The arrangement: method as in PMID 26639348, PMID 23291630. The settings on record: cited from earlier work.

Consider `CC1(C)CCC(CN2CCN(c3ccc(C(=O)NS(=O)(=O)c4ccc(NCC5CCOCC5)c([N+](=O)[O-])c4)c(Oc4cnc5[nH]ccc5c4)c3)CC2)=C(c2ccc(Cl)cc2)C1` [Venetoclax], for which the P-gp protein expression entry in the assay on P-gp is reported as “suppression”. In the assay on Bcl-xL, the Bcl-xL inhibition result is listed as “does not inhibit”.
